Data from patent publication US20230227466A1, “SUBSTITUTED THIENOPYRIMIDINES THAT INTERACT WITH THE RAS SUPERFAMILY FOR THE TREATMENT OF CANCERS, INFLAMMATORY DISEASES, RASOPATHIES, AND FIBROTIC DISEASE” (SHY Therapeutics, LLC, priority 2020, published 2023).
Read-outs that look alike come from different tables or passages of the source.

Tests used:
[1] = target: T1, KRas Q61H mutant (Homo sapiens, UniProt P01116, Q61H); assay: Ras GTP binding domain inhibition assay (labeled-GTP competition, cell-free)
T1 construct: made in house
Procedure, shortened: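 His-tagged GTPases were coated at 10-30 μg/mL onto nickel plates overnight at 4° C, then exposed to compound (20 μM, or serial dilutions for IC50) in buffer with 1% DMSO for 3 h at room temperature, with or without 10-30 μg/mL His-Sos (556-1049) in the final hour. Cy3- or Cy5-GTP (100 nM, 45 min) binding was measured after washing.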

[2] = tested on: ERK1/2 phosphorylation in Panc-1 cells; assay: Western ERK1/2 cell-based phosphorylation assay; parameters: species or system human; conditions: at 10 μM, values in brackets < > are activation %, not inhibition
Procedure, shortened: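 Western blot with anti-phospho-p44/42 (Thr202/Tyr204) measured ERK1/2 phosphorylation after 15 min EGF (1.5 ng/ml) stimulation. Beforehand, serum-starved (0.5% FBS, overnight) Panc-1 cells received compounds for 6 h at 37 °C, at 10 μM final in 0.3% DMSO or as dilution series for IC50.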

[3] = with SOS, read-out: KRas Q61H mutant + SOS: % inh.
[4] = without SOS, read-out: KRas Q61H mutant: % inh.

| SMILES | inhibition at 20 µM [1, 3] [%] | inhibition at 20 µM [1, 4] [%] | IC50 ([1]; with SOS) [µM] | % inh of ERK1/2 phosphorylation in PANC-1 [2] |
| --- | --- | --- | --- | --- |
| COCCn1cnc(-c2nc(O)c3scc(-c4ccccn4)c3n2)c1 [Compound 78, 2-(1-(2-Methoxyethyl)-1H-imidazol-4-yl)-7-(pyridin-2-yl)thieno[3,2-d]pyrimidin-4-ol] | 51 to 75 | 76 to 100 |  | 0 (0% inhibition) |
| COCCCn1ccnc1-c1nc(O)c2scc(-c3ccccn3)c2n1 [Compound 79, 2-(1-(3-Methoxypropyl)-1H-imidazol-2-yl)-7-(pyridin-2-yl)thieno[3,2-d]pyrimidin-4-ol] | 51 to 75 | 51 to 75 |  | 0 (0% inhibition) |
| CCOCCn1ccnc1-c1nc(O)c2scc(-c3ccccn3)c2n1 [Compound 80, 2-(1-(2-Ethoxyethyl)-1H-imidazol-2-yl)-7-(pyridin-2-yl)thieno[3,2-d]pyrimidin-4-ol] | 51 to 75 | 76 to 100 |  | A (1-25% inhibition) |
| Oc1nc(-c2nccn2CCOCC(F)(F)F)nc2c(-c3ccccn3)csc12 [Compound 81, 7-(Pyridin-2-yl)-2-(1-(2-(2,2,2-trifluoroethoxy)ethyl)-1H-imidazol-2-yl)thieno[3,2-d]pyrimidin-4-ol] | 51 to 75 | 51 to 75 |  | B (26-50% inhibition) |
| CC(C)OCCn1ccnc1-c1nc(O)c2scc(-c3ccccn3)c2n1 [Compound 82, 2-(1-(2-Isopropoxyethyl)-1H-imidazol-2-yl)-7-(pyridin-2-yl)thieno[3,2-d]pyrimidin-4-ol] | 51 to 75 | 51 to 75 |  | A (1-25% inhibition) |
| Oc1nc(-c2nccn2CCOCc2ccccc2)nc2c(-c3ccccn3)csc12 [Compound 83, 2-(1-(2-(Benzyloxy)ethyl)-1H-imidazol-2-yl)-7-(pyridin-2-yl)thieno[3,2-d]pyrimidin-4-ol] | 51 to 75 | 26 to 50 |  | B (26-50% inhibition) |
| COc1cccn2c(-c3nc(O)c4scc(-c5ccccn5)c4n3)ncc12 [Compound 84, 2-(8-Methoxyimidazo[1,5-a]pyridin-3-yl)-7-(pyridin-2-yl)thieno[3,2-d]pyrimidin-4-ol] | 26 to 50 | 26 to 50 |  | 0 (0% inhibition) |

More lines, main results first:

| inhibition at 20 µM [1, 3] [%] | inhibition at 20 µM [1, 4] [%] | IC50 ([1]; with SOS) [µM] | SMILES | % inh of ERK1/2 phosphorylation in PANC-1 [2] |
| --- | --- | --- | --- | --- |
| 51 to 75 | 51 to 75 |  | COc1cc(Nc2nc(-c3nccn3C)nc3sc(-c4ccn(C(C)C)n4)c(C)c23)ccn1 [Compound 67, 6-(1-Isopropyl-1H-pyrazol-3-yl)-N-(2-methoxypyridin-4-yl)-5-methyl-2-(1-methyl-1H-imidazol-2-yl)thieno[2,3-d]pyrimidin-4-amine] | 0 (0% inhibition) |
| 51 to 75 | 76 to 100 |  | COc1ccnc(Nc2nc(-c3nccn3C)nc3sc(-c4ccn(C(C)C)n4)c(C)c23)n1 [Compound 68, 6-(1-Isopropyl-1H-pyrazol-3-yl)-N-(4-methoxypyrimidin-2-yl)-5-methyl-2-(1-methyl-1H-imidazol-2-yl)thieno[2,3-d]pyrimidin-4-amine] | C (51-75% inhibition) |
| 0 | 0 |  | Cc1c(-c2ccn(C(C)C)n2)sc2nc(-c3ccccn3)nc(N3CCC(COC(C)C)C3)c12 (stereo not shown) [Compound 72, 4-(3-(Isopropoxymethyl)pyrrolidin-1-yl)-6-(1-isopropyl-1H-pyrazol-3-yl)-5-methyl-2-(pyridin-2-yl)thieno[2,3-d]pyrimidine] | D (76-100% inhibition) |
| 0 | 0 | > 10 | CO[C@H]1C[C@@H](Nc2nc(-c3nccn3C)nc3sc(-c4ccn(C(C)C)n4)c(C)c23)C1 [Compound 96, 6-(1-isopropyl-1H-pyrazol-3-yl)-N-((1s,3s)-3-methoxycyclobutyl)-5-methyl-2-(1-methyl-1H-imidazol-2-yl)thieno[2,3-d]pyrimidin-4-amine] | B (26-50% inhibition) |
